# According to ChEMBL document CHEMBL3046696, “QSAR analysis of caffeoyl naphthalene sulfonamide derivatives as HIV-1 integrase inhibitors” (Med Chem Res, 2006):
# Assay: physchem
# Conditions: octanol/water
# Description: Octanol-water partition coefficient, log P of the compound
row,logP,Structure (SMILES)
1,5.59,CC(=O)Oc1ccc(/C=C/C(=O)N(c2ccccc2)c2cccc3c(S(=O)(=O)Nc4ccccc4)cccc23)cc1OC(C)=O
2,4.55,CC(=O)Oc1ccc(/C=C/C(=O)Nc2cccc3c(S(=O)(=O)Nc4ccc(C(F)(F)F)cc4)cccc23)cc1OC(C)=O
3,4.92,CCCc1cccc(NS(=O)(=O)c2cccc3c(NC(=O)/C=C/c4ccc(OC(C)=O)c(OC(C)=O)c4)cccc23)c1
4,3.15,CCS(=O)(=O)c1ccc(NS(=O)(=O)c2cccc3c(NC(=O)/C=C/c4ccc(OC(C)=O)c(OC(C)=O)c4)cccc23)cc1
5,4.55,CC(=O)Oc1ccc(/C=C/C(=O)Nc2cccc3c(S(=O)(=O)Nc4ccc(S(=O)(=O)C(F)(F)F)cc4)cccc23)cc1OC(C)=O
6,4.57,O=C(/C=C/c1ccc(O)c(O)c1)Nc1cccc2c(S(=O)(=O)Nc3ccc(F)cc3)cccc12
7,4.53,CCc1ccccc1NS(=O)(=O)c1cccc2c(NC(=O)/C=C/c3ccc(OC(C)=O)c(OC(C)=O)c3)cccc12
8,4.46,O=C(/C=C/c1ccc(O)c(O)c1)Nc1cccc2c(S(=O)(=O)Nc3ccccc3)cccc12
9,4.6,Cc1ccccc1NS(=O)(=O)c1cccc2c(NC(=O)/C=C/c3ccc(O)c(O)c3)cccc12
10,4.92,CCCc1ccccc1NS(=O)(=O)c1cccc2c(NC(=O)/C=C/c3ccc(OC(C)=O)c(OC(C)=O)c3)cccc12
11,4.13,O=C(/C=C/c1ccc(O)c(O)c1)Nc1cccc2c(S(=O)(=O)NCCc3ccccc3)cccc12
12,4.19,CC(=O)Oc1ccc(/C=C/C(=O)Nc2cccc3c(S(=O)(=O)Nc4ccc(F)cc4)cccc23)cc1OC(C)=O
13,4.24,CC(=O)Oc1ccc(/C=C/C(=O)Nc2cccc3c(S(=O)(=O)Nc4cccc([N+](=O)[O-])c4)cccc23)cc1OC(C)=O
14,4.1,CC(=O)Oc1ccc(/C=C/C(=O)Nc2cccc3c(S(=O)(=O)NCc4ccccc4)cccc23)cc1OC(C)=O
15,3.71,O=C(/C=C/c1ccc(O)c(O)c1)Nc1cccc2c(S(=O)(=O)Nc3ccc(Cl)cc3)cccc12
16,3.66,CC(=O)Oc1ccc(/C=C/C(=O)Nc2cccc3c(S(=O)(=O)Nc4ccccc4)cccc23)cc1OC(C)=O
17,4.01,CC(=O)Oc1ccc(/C=C/C(=O)Nc2cccc3c(S(=O)(=O)Nc4ccc(Cl)cc4)cccc23)cc1OC(C)=O
18,6.54,CC(=O)Oc1ccc(/C=C/C(=O)N(c2cccc3c(S(=O)(=O)Nc4ccc(C(F)(F)F)cc4)cccc23)C(F)(F)F)cc1OC(C)=O
19,5.66,CC(=O)Oc1ccc(/C=C/C(=O)N(c2cccc3c(S(=O)(=O)Nc4ccccc4)cccc23)C(F)(F)F)cc1OC(C)=O
20,5.12,CCCCN(c1ccc(F)cc1)S(=O)(=O)c1cccc2c(NC(=O)/C=C/c3ccc(OC(C)=O)c(OC(C)=O)c3)cccc12
21,4.13,Cc1ccc(NS(=O)(=O)c2cccc3c(NC(=O)/C=C/c4ccc(O)c(O)c4)cccc23)cc1
22,3.15,CCS(=O)(=O)c1cc(NC(=O)/C=C/c2ccc(OC(C)=O)c(OC(C)=O)c2)c2cccc(S(=O)(=O)Nc3ccccc3)c2c1
23,4.86,CC(=O)Oc1ccc(/C=C/C(=O)Nc2cccc3c(S(=O)(=O)Nc4cccc(C(C)C)c4)cccc23)cc1OC(C)=O
24,4.57,O=C(/C=C/c1ccc(O)c(O)c1)Nc1cccc2c(S(=O)(=O)Nc3cccc([N+](=O)[O-])c3)cccc12

row,logP,Structure (SMILES)
1,4.53,CCc1cccc(NS(=O)(=O)c2cccc3c(NC(=O)/C=C/c4ccc(OC(C)=O)c(OC(C)=O)c4)cccc23)c1
2,7.16,CC(=O)Oc1ccc(/C=C/C(=O)N(c2cccc3c(S(=O)(=O)Nc4ccc(SC(F)(F)F)cc4)cccc23)S(=O)(=O)C(F)(F)F)cc1OC(C)=O
3,5.32,CCCCc1cc(NC(=O)/C=C/c2ccc(OC(C)=O)c(OC(C)=O)c2)c2cccc(S(=O)(=O)Nc3ccccc3)c2c1
4,5.5,CC(=O)Oc1ccc(/C=C/C(=O)Nc2cccc3c(S(=O)(=O)Nc4ccc(SC(F)(F)F)cc4)cccc23)cc1OC(C)=O
5,4.86,CC(=O)Oc1ccc(/C=C/C(=O)Nc2cccc3c(S(=O)(=O)Nc4ccc(C(C)C)cc4)cccc23)cc1OC(C)=O
6,4.62,CC(=O)Oc1ccc(/C=C/C(=O)Nc2cccc3c(S(=O)(=O)Nc4cccc(C)c4C)cccc23)cc1OC(C)=O
7,3.8,CC(=O)Oc1ccc(/C=C/C(=O)Nc2cccc3c(S(=O)(=O)Nc4ccc(C)cc4)cccc23)cc1OC(C)=O
8,6.65,CCN(c1ccccc1)S(=O)(=O)c1cccc2c(N(C(=O)/C=C/c3ccc(OC(C)=O)c(OC(C)=O)c3)c3ccccc3)cc(C)cc12
9,4.81,CCS(=O)(=O)c1ccc(NS(=O)(=O)c2cccc3c(N(C(=O)/C=C/c4ccc(OC(C)=O)c(OC(C)=O)c4)S(=O)(=O)C(F)(F)F)cccc23)cc1
10,7.34,CCc1ccc(N(C(=O)/C=C/c2ccc(OC(C)=O)c(OC(C)=O)c2)c2cc(C(F)(F)F)cc3c(S(=O)(=O)Nc4ccc(S(=O)(=O)CC)cc4)cccc23)cc1
11,3.76,CC(=O)Oc1ccc(/C=C/C(=O)Nc2cccc3c(S(=O)(=O)NCCc4ccccc4)cccc23)cc1OC(C)=O
12,6.54,CC(=O)Oc1ccc(/C=C/C(=O)N(c2cccc3c(S(=O)(=O)Nc4cccc(C(F)(F)F)c4)cccc23)C(F)(F)F)cc1OC(C)=O
13,4.53,CCc1ccc(NS(=O)(=O)c2cccc3c(NC(=O)/C=C/c4ccc(OC(C)=O)c(OC(C)=O)c4)cccc23)cc1
14,4.44,CC(=O)Oc1ccc(/C=C/C(=O)Nc2cccc3c(S(=O)(=O)Nc4ccc(Br)cc4)cccc23)cc1OC(C)=O
15,4.14,O=C(/C=C/c1ccc(O)c(O)c1)Nc1cccc2c(S(=O)(=O)Nc3ccc(Br)cc3)cccc12
16,5.03,Cc1cccc(NS(=O)(=O)c2cccc3c(NC(=O)/C=C/c4ccc(O)c(O)c4)cccc23)c1C
17,6.03,CC(=O)Oc1ccc(/C=C/C(=O)N(c2cccc3c(S(=O)(=O)Nc4ccc(S(=O)(=O)C(F)(F)F)cc4)cccc23)C(F)(F)F)cc1OC(C)=O
18,4.18,CC(=O)Oc1ccc(/C=C/C(=O)Nc2cccc3c(S(=O)(=O)Nc4ccccc4C)cccc23)cc1OC(C)=O
19,4.86,CC(=O)Oc1ccc(/C=C/C(=O)Nc2cccc3c(S(=O)(=O)Nc4ccccc4C(C)C)cccc23)cc1OC(C)=O
20,3.92,CCS(=O)(=O)N(C(=O)/C=C/c1ccc(OC(C)=O)c(OC(C)=O)c1)c1cccc2c(S(=O)(=O)Nc3ccccc3)cccc12
21,4.89,O=C(/C=C/c1ccc(O)c(O)c1)Nc1cccc2c(S(=O)(=O)NCc3ccccc3)cccc12
22,4.55,CC(=O)Oc1ccc(/C=C/C(=O)Nc2cccc3c(S(=O)(=O)Nc4ccccc4C(F)(F)F)cccc23)cc1OC(C)=O
23,7.16,CC(=O)Oc1ccc(/C=C/C(=O)N(SC(F)(F)F)c2cccc3c(S(=O)(=O)Nc4ccc(S(=O)(=O)C(F)(F)F)cc4)cccc23)cc1OC(C)=O
24,6.18,CCN(c1ccccc1)S(=O)(=O)c1cccc2c(N(C(=O)/C=C/c3ccc(OC(C)=O)c(OC(C)=O)c3)c3ccccc3)cccc12
